In brackets after ≈: the same amount, converted by molar mass. Read-outs that look alike come from different tables or passages of the source.
How the values were obtained:
Peptostreptococcus spp. = experiment: MIC, Peptostreptococcus spp.; assay type: cell-based; settings: N = 10
[1] = tested on: Viridans group streptococci; experiment: MIC, Viridans group streptococci; assay type: cell-based; settings: N = 51
CXCL8 = CXCL8 (IL-8) production in LPS-stimulated PMA-differentiated U937 cells (ELISA); assay type: cell-based, human
Procedure: (§1) EXAMPLE. […] Cells. The human monocytic cell line U937 was obtained from the American Type Culture Collection (ATCC, Rockville, Md.). PBMCs from COPD patients were obtained from Brompton hospital and separated by AccuSPIN (Sigma-Aldrich). […] U937 cells were differentiated into adherent macrophage-like morphology by exposure to PMA (50 ng/ml) for 48 h in complete growth medium. Cell viability was assessed microscopically by trypan blue staining. Cell toxicity was determined by MTT assay as needed. This study was approved by the ethics committee of the Royal Brompton Hospitals, and all subjects gave written informed consent. Cytokine ELISA. TNFα and IL-8 concentrations in the supernatant of cell cultures were determined by sandwich ELISA according to the manufacturer's instructions (R&D Systems Europe, Abingdon, UK). Statistical analysis. The results were expressed as the mean±SEM. Comparisons of data in two groups were performed using the Student's t test or the Wilcoxon signed rank test. Multiple comparisons were made by one-way ANOVA with post hoc test (Dunnett's) as appropriate. The difference was considered significant at p<0.05. […] Anti-inflammatory effects of solithromycin in U937 cells.

P. Acnes = experiment: MICs of solithromycin and comparator drugs against P. acnes; assay type: cell-based
Source text: EXAMPLE. The formulations described herein show overall higher potency against ocular pathogens than commercial standards. MICs (μg/ml) of Solithromycin and Comparator Drugs against P. Acnes (51 Species)

Mycoplasma hominis = experiment: MIC, Mycoplasma hominis; assay type: cell-based; settings: N = 13
Mycoplasma pneumoniae = experiment: MIC, Mycoplasma pneumoniae (38 strains); assay type: cell-based
[2] = tested on: phagocytized L. pneumophila; assay type: cell-based
log P = assay type: physicochemical
Procedure: Formulated compounds are tested for their transverse diffusive ability through the membrane. Diffusion through biological membranes is directly correlated to the formulation excipients, its physical state (suspension, solution, emulsion, etc.) and its log P. […] For compounds with log P>3, the compound typically permeates the lipid epithelium of the cornea, only to be hindered by the hydrophilic stroma. For an indication like blepharitis, high corneal concentrations achieved with repeat dosing will result in a drug depot, acting like a sustained release system.

H. influenzae = experiment: MICs of solithromycin and comparator drugs, H. influenzae (30 species); assay type: cell-based
Source text: (§2) EXAMPLE. The formulations described herein show overall higher potency against ocular pathogens than commercial standards.
(§3) MICs (μg/ml) of Solithromycin and Comparator Drugs against Bacterial Species

[3] = tested on: Streptococci (Groups C, F, G); experiment: MIC, Streptococci (Groups C, F, G); assay type: cell-based; settings: N = 185
Streptococcus pneumoniae = experiment: MIC, Streptococcus pneumoniae (150 strains); assay type: cell-based
MSSA = experiment: MICs of solithromycin and comparator drugs, MSSA (31 species); assay type: cell-based
Source text: as §2, §3

TNFα = TNFα production in LPS-stimulated PMA-differentiated U937 cells (ELISA); assay type: cell-based, human
Procedure: as §1

Streptococcus agalactiae = experiment: MIC, Streptococcus agalactiae; assay type: cell-based; settings: N = 535
[4] = Cutibacterium acnes, 51 species

For CC[C@H]1OC(=O)[C@@](C)(F)C(=O)[C@H](C)[C@@H](O[C@@H]2O[C@H](C)C[C@H](N(C)C)[C@H]2O)[C@](C)(OC)C[C@@H](C)C(=O)[C@H](C)[C@H]2N(CCCCn3cc(-c4cccc(N)c4)nn3)C(=O)O[C@]12C [CEM-101, solithromycin], the “MIC Range” value (Peptostreptococcus spp.) was ≤0.03-0.25^ μg/mL, the MIC50 (Peptostreptococcus spp.; Peptostreptococcus) was 60 ng/mL (≈ 71 nM) and the MIC90 (Peptostreptococcus spp.; Peptostreptococcus) was 250 ng/mL (≈ 296 nM). The MIC50 [1] was ≤ 8 ng/mL, the MIC90 [1] was 60 ng/mL (≈ 71 nM) and the “MIC Range” value [1] was ≤0.008-0.12 ^ μg/mL. The IC50 (CXCL8; Homo sapiens, U-937, LPS, PMA-differentiated U937 cells, read-out: IC50 on CXCL8 release) was 78.2 ± 9.5 µM, the “effect on CXCL8 production” value (CXCL8; at 100 μM) was “significantly inhibited” and the “MIC Range” value (P. Acnes) was ≤2 to 250 ng/mL. The MIC50 (P. Acnes; [4]) was 15 ng/mL (≈ 17.8 nM), the MIC90 (P. Acnes; [4]) was 60 ng/mL (≈ 71 nM) and the MIC50 (Mycoplasma hominis; Metamycoplasma hominis) was 4 ng/mL (≈ 4.73 nM). The MIC90 (Mycoplasma hominis; Metamycoplasma hominis) was 8 ng/mL (≈ 9.47 nM), the “MIC Range” value (Mycoplasma hominis) was 2 to 8 ng/mL and the MIC90 (Mycoplasma pneumoniae; Mycoplasma, 38 strains, read-out: MIC90) was 0.125 ng/mL (≈ 0.148 nM). The MIC50 (Mycoplasma pneumoniae; Mycoplasma, N = 38) was 0.032 ng/mL (≈ 0.0379 nM), the MIC90 (Mycoplasma pneumoniae; N = 38) was 0.125 ng/mL (≈ 0.148 nM) and the “MIC Range” value (Mycoplasma pneumoniae; N = 38) was ≤6.3e-05 to 500 ng/mL. For the same compound, the “potency relative to azithromycin” value [2] was 100 fold, the logP (log P) was 4.2 and the “I (intermediate susceptibility)” value (H. influenzae) was 0%. The “MIC Range” value (H. influenzae) was 1000 to 4000 ng/mL, the “NS (not susceptible)” value (H. influenzae) was 0% and the “S (susceptible)” value (H. influenzae) was 100%. For the same compound, the MIC50 (H. influenzae; Haemophilus influenzae) was 2000 ng/mL (≈ 2370 nM), the MIC90 (H. influenzae; Haemophilus influenzae) was 2000 ng/mL (≈ 2370 nM) and the MIC50 [3] was ≤ 30 ng/mL. The MIC90 [3] was ≤ 30 ng/mL, the “MIC Range” value [3] was ≤0.03-0.25^ μg/mL and the MIC90 (Streptococcus pneumoniae; N = 150) was 250 ng/mL (≈ 296 nM). For the same compound, the “MIC Range” value (Streptococcus pneumoniae; N = 150) was ≤8 to 500 ng/mL, the MIC90 (Streptococcus pneumoniae; Streptococcus pneumoniae, 150 strains, read-out: MIC90) was 250 ng/mL (≈ 296 nM) and the MIC50 (Streptococcus pneumoniae; Streptococcus pneumoniae, N = 150) was 15 ng/mL (≈ 17.8 nM). The “I (intermediate susceptibility)” value (MSSA) was 0%, the “MIC Range” value (MSSA) was 4 to 64000 ng/mL and the “NS (not susceptible)” value (MSSA) was 6%. For the same compound, the “S (susceptible)” value (MSSA) was 94%, the MIC50 (MSSA; Staphylococcus aureus, MSSA) was 15 ng/mL (≈ 17.8 nM) and the MIC90 (MSSA; Staphylococcus aureus, MSSA) was 30 ng/mL (≈ 35.5 nM). The IC50 (TNFα; Homo sapiens, U-937, LPS, PMA-differentiated U937 cells, read-out: IC50 on TNFα release) was 41.6 ± 1.9 µM, the “effect on TNFα production” value (TNFα; at 100 μM) was “significantly inhibited” and the “MIC Range” value (Streptococcus agalactiae) was ≤0.03-0.5 ^ μg/mL. For the same compound, the MIC50 (Streptococcus agalactiae; Streptococcus agalactiae) was ≤ 30 ng/mL and the MIC90 (Streptococcus agalactiae; Streptococcus agalactiae) was ≤ 30 ng/mL.
